Experiments:
α1A (rabbit urethra) = biological target: T1, α1A (rabbit urethra) (Oryctolagus cuniculus, UniProt O02824); assay: Agonist tissue response, contraction of rabbit urethra; assay type: biochemical; settings: values without asterisk, read-out: Agonist Tissue Response (pD2) α1A (rab ureth) (converted)
T1 construct: tested for α1A functional activity using rabbit urethra; from tissue; host or cells: rabbit urethra (female New Zealand white rabbits)
T1 sequence (O02824 1-466): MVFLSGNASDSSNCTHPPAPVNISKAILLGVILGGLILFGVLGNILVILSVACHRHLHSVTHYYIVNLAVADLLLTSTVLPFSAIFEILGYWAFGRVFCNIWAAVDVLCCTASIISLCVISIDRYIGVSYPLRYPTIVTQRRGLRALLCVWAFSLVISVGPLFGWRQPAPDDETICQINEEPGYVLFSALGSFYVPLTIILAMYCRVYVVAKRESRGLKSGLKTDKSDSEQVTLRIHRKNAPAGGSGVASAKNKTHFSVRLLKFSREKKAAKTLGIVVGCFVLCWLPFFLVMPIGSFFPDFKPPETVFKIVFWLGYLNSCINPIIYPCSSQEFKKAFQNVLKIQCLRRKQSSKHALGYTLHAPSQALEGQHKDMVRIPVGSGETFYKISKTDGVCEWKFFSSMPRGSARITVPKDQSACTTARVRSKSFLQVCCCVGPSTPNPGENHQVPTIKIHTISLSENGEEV
Protocol: Most of the compounds were tested for α1A functional activity using rabbit urethra as follows. Female New Zealand white rabbits (2.0-3.5 Kg) were sedated with CO2 and decapitated. […] Subsequent experimental conditions were as described above for the other tissues. Agonist concentration response curves were cumulative except for the vas deferens assay in which the transient response made such measurements impractical.

[1] = biological target: T2, α1d (rat receptor expressed in mouse fibroblasts) (Rattus norvegicus, UniProt P23944); assay: Radioligand binding, [3H]-prazosin, α1d; settings: rat receptor expressed in mouse fibroblasts, [3H]-prazosin; read-out: Radioligand Binding Ki α1d (Rat)
T2 construct: expressed in transfected cells; host or cells: mouse fibroblasts
T2 sequence (P23944 1-561): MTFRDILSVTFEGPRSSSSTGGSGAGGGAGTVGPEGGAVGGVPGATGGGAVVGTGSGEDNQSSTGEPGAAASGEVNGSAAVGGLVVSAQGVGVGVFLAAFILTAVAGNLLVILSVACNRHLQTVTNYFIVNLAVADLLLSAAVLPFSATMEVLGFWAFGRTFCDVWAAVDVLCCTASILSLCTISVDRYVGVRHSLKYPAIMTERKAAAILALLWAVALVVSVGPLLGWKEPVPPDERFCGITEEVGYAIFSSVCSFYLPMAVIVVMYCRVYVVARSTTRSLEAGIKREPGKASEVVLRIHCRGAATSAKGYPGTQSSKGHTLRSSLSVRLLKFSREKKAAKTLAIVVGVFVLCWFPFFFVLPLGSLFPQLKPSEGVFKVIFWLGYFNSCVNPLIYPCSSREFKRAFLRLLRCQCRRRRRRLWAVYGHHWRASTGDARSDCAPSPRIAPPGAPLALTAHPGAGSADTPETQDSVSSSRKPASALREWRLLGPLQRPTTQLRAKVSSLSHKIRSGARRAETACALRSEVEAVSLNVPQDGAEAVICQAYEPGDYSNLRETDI
Method in brief: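 [3H]-prazosin radioligand displacement; α1A from rat submaxillary gland tissue, α1b hamster and α1d rat receptors each expressed in mouse fibroblasts.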

anesthetized dogs = assay: Mean arterial pressure (MAP) in anesthetized dogs; assay type: in vivo, dog; settings: iv dose causing a maximum increase in MAP of 20 mm Hg, anesthetized female Beagle dogs
Source text: Female Beagle dogs (Marshall Farms, North Rose, N.Y.) greater that 2 years of age and weighing between 12 and 15 kg were used in these studies. At least 2 weeks prior to any agonist dosing, dogs were instrumented for the chronic measurement of arterial blood pressure by implanting a telemetry transducer/transmitter (TA11PA-C40, Data Sciences International, St. Paul, Minn.) into a carotid artery.
On the test day, dogs fasted since the previous afternoon were pre-anesthetized with thiopental sodium 15 mg/kg i.v. (Pentothal™, Abbott) and intubated. Anesthesia was maintained by allowing the dog to spontaneously breathe a mixture of isoflurane (2.5 to 3 volume %) and oxygen delivered by a Narkomed Standard anesthesia system (North American Drager, Telford, Pa.). An Abbocath-T™ i.v. catheter (18-G, Abbott) was inserted into the cephalic vein for the administration of agonists. A telemetry receiver (RA1310, DataSciences) was placed under the head of each dog and was interfaced to a computerized data acquisition system (Modular Instruments Inc.(MI2), Malvern, Pa.) which allowed for the continuous calibrated recording of arterial blood pressure which was electronically filtered to determine its mean value (MAP).
From the resulting dose response curve, an ED5 value, for the dose causing a maximum increase in IUP of 5 mm Hg, could be estimated. An ED20 value for the dose causing a maximum increase in MAP of 20 mm Hg could also be estimated. A selectivity ratio of MAP ED20 vs. IUP ED, was calculated.

Structure (SMILES): CCS(=O)(=O)Nc1cccc2c1OCCC2c1c[nH]cn1 (single isomer, unassigned; (+)) [Example 95, (+) N-[4-(1H-imidazol-4-yl)-3,4-dihydro-2H-chromen-8-yl]ethanesulfonamide]
- EC50 (α1A (rabbit urethra)): 1.38 µM
- Ki [1]: 10 µM
- melting point: 223 to 226 °C
- Mean MAP ED20 (anesthetized dogs): 109.1 nmol/kg

From patent US20030073850A1, “4-Imidazole derivatives of benzyl and restricted benzyl sulfonamides, sulfamides, ureas, carbamates, and amides and their use” (priority 1998, published 2003)
